Legend:
[1] = test system: chick periosteal osteogenesis (CPO) cultures; assay: Newly synthesized 14C-labeled collagen type I in CPO cultures; assay type: cell-based
Procedure: For the purposes of this investigation, the effects of a potent aryl hydrocarbon, TCDD (2,3,7,8-tetrachlorodibenzo-p-dioxin or dioxin) on the early events occurring during osteogenesis were determined. The CPO model traverses a number of phases of osteogenesis. Therefore, it was possible to design temporal or “window” experiments in order to determine the phases of osteogenesis that were sensitive to TCDD and/or resveratrol. […] All cultures were maintained for the entire 6-day period. The compounds were administered over four different temporal phases, as outlined below in the time-line diagram: a) days 0-6; b) days 0-2; c) days 2-4 or d) days 4-6 (Note: all cultures were stopped at 6 days). Results were compared to e) vehicle alone over days 0-6. [drawing 1]
Radiolabeled collagen was measured in CPO cultures incubated with ^14C-glycine (Amersham, 59 mCi/mMole) at a concentration of 10 μci/ml media in each group over days 4-6. The cultures were hydrolyzed in 0.1 ml of 0.1N HCl and vortexed. After 15 minutes, the supernatant was removed and saved in a 2 ml eppendorf tube. The culture was transferred to a 0.5 ml eppendorf tube containing 0.1 ml of pepsin (50 μg/ml in 0.1% glacial acetic acid) for further digestion of labeled collagen. These were maintained in a 15° C. water bath for 5 hours, vortexing the samples every hour. The supernatant was transferred to a new 0.5 ml eppendorf tube and was then lyophilized overnight. The amount of radiolabeled collagen was determined by gel electrophoresis as described hereunder. The lyophilized samples were reconstituted with 0.1 ml of a solution made of 70% sample buffer (10 mM Tris.HCl and 1 mM EDTA, pH 8.0) (Sigma-Aldrich Canada Ltd., Oakville, Canada), 2.5% SDS (Sigma), 5% β-mercaptoethanol (Sigma) and 0.01% bromophenol-blue (Sigma). […]
Fluorography was used to analyze the amount of newly synthesized ^14C-labeled collagen in each sample. […] The intensity of the resultant bands on the film was quantified using a laser densitometer to give a measure of the amount of newly synthesized collagen in each sample.

[2] = test system: rat SBMC (stromal bone marrow cell) line; assay: AP activity in rat stromal bone marrow cell (SBMC) line; assay type: cell-based
Procedure: Cells for the rat SBMC model were obtained from Dr. Sandu Pitaru (Tel Aviv University, Israel) and maintained in T25 tissue culture flasks (Sarstedt, Newton, N.C., USA) in a medium composed of αMEM+RNA+DNA+antibiotic supplemented with 10% fetal calf serum, 10 mM β-glycerophosphate, 10^−8M dexamethasone, 50 μg/ml vitamin C and 3 ng/ml fibroblast growth factor. The media were changed every 48 hours and the cells subcultured when almost confluent (approximately every 72 hrs). Cells were grown for a period of 1-2 weeks to allow for formation of mineralized bone nodules.
SBMC cultures were assayed for AP activity using paranitrophenol-phosphate (pN-p) as the substrate as described above for CPO cultures. In some cases, AP activity was also measured using direct staining of SBMC cultures in 96 well plates as described previously (Tenenbaum et al., Anat Rec. 1995. 242(2):200-10). Mineralization in the SBMC cultures was determined using Alizarin Red staining in situ that was assessed with the Titertek spectrophotometer set at 525 nm.

[3] = target: T1, AhR in SBMC cells (Rattus norvegicus, UniProt P41738); assay: Live whole cell (RSBMC) competitive uptake/binding assay with 3H-TCDD
T1 construct: endogenous in cells; host or cells: rat stromal bone marrow cell line (RSBMC / SBMC)
T1 sequence (P41738 10-853): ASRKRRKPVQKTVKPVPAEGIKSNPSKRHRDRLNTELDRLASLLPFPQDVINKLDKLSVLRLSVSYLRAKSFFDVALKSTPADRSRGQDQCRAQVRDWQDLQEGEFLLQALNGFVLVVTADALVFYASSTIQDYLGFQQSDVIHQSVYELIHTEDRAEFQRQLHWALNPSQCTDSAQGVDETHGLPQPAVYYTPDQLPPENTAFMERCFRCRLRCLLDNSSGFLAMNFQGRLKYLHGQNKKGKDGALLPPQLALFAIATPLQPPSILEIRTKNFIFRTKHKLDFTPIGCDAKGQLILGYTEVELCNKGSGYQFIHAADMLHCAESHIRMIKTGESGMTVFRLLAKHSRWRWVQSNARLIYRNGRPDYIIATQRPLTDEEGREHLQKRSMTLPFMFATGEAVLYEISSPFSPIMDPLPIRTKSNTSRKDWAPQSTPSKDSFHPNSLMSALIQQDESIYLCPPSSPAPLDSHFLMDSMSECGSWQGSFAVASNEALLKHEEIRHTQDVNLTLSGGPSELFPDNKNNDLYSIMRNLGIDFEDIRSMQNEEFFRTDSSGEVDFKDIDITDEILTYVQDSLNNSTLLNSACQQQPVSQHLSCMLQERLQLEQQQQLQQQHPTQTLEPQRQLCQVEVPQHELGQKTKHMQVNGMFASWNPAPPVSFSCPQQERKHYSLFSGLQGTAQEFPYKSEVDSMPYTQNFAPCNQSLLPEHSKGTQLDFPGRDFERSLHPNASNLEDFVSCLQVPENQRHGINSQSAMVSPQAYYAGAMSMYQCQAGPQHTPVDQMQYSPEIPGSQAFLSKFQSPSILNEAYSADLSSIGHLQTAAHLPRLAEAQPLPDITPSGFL
Procedure: The need for preincubation (see below) may also alter competition kinetics in this type of binding assay. Cells were plated at a density of 10,000 per well in Titertek 96-well plates, and left overnight to attach in medium. […] Cells were preincubated with cold drug one hour prior to addition of radiolabeled TCDD (specific activity 33.4 Ci/mmol; Chemsyn Lab, Kansas) (pilot studies having shown that preincubation was required to detect competition). One set of wells was incubated without cold drug to determine total binding. ^3H-TCDD (10,000 cpm/well in a volume of 10 μl) was added and incubated for 4 hours at room temperature. The media were aspirated and the cells washed 4× with 100 μl of PBS. 100 μl of 0.1N sulphuric acid was added and the cells were incubated at 37° C. overnight to break the cells open. 80 μl of the lysate was added to 5 ml of scintillation fluid and counted in a beta counter.

[4] = test system: rat bone marrow cells (RBMC); assay: APA in primary rat bone marrow cell (RBMC) bone formation system; assay type: cell-based
Description: Rat bone marrow cells were derived from femoral bones removed from adult male Wistar rats as described previously (Maniatopoulos et al., Cell Tissue Res, 1988, 254(2):317-330). These cells, grown in the presence of dexamethasone, vitamin C and b-glycerophosphate, differentiated into osteoblasts as shown by increases in APA and the production of mineralized bone nodules within 12-14 days. For the purposes of this investigation, we analyzed 10-16 day cultures for APA, as this was a reliable marker for osteoblastic differentiation in this system.

[5] = test system: rat bone marrow cultures; assay: APA in rat bone marrow cultures treated with BaP; assay type: cell-based; settings: resveratrol (10^−6M) added with BaP
Procedure: In this experiment, the effects of the aryl hydrocarbon, benzo-a-pyrene (BaP) on the early events occurring during osteogenesis were determined. Ten-day old rat bone marrow cultures were treated with increasing concentrations of BaP. The effect of this treatment was monitored by APA as set out above.

SMILES | decrease in newly synthesized collagen type I levels ([1]; 10^−9M TCDD alone, p>0.05) | reduction in AP activity ([2]; TCDD 1.1×10^−9M) | reduction in AP activity versus control ([2]; TCDD 3.3×10^−9M and higher) | dose dependence of reduction in AP activity ([2]; TCDD 3.3×10^−9M to 4.12×10^−11M) | AP activity ([2]; TCDD 4.12×10^−11M) | IC50 [3] | concentration reducing 3H-TCDD binding to background levels ([3]; 1 h preincubation with cold drug, 4 h with 3H-TCDD at room temperature) | inhibition at 0.001 µM ([4]; Rattus norvegicus, Bone marrow cell, read-out: inhibition of osteodifferentiation as measured by APA, compared to alcohol-treated control) | newly synthesized collagen type I levels ([1]; 10^−6M resveratrol alone, compared to vehicle) | newly synthesized collagen type I level ([1]; co-treatment with TCDD and resveratrol, versus TCDD alone) | effect on AP activity ([2]; increasing concentration of resveratrol, TCDD 4.12×10^−11M) | abrogation of TCDD effect on AP activity ([2]; resveratrol 4×10^−8M to 1×10^−5M, TCDD 1.1×10^−9M) | reversal of TCDD reduction in AP activity ([2]; resveratrol at various concentrations, TCDD 3.3×10^−9M and higher) | abrogation of TCDD effects on APA ([4]; resveratrol 10^−6 molar in alcohol, added together or singly between days 4-10, FIG. 9) | effect on APA ([4]; resveratrol alone) | reversal of BaP's inhibitory effect on alkaline phosphatase [5]
Clc1cc2c(cc1Cl)Oc1cc(Cl)c(Cl)cc1O2 [TCDD, 2,3,7,8-tetrachlorodibenzo-p-dioxin] | about 30% | 33% | 33% | dose dependant | not affected | ~3.7 nM | 33 nM | ~50% | – | – | – | – | – | – | – | –
Oc1ccc(C=Cc2cc(O)cc(O)c2)cc1 [resveratrol, 3,5,4′-trihydroxystilbene] | – | – | – | – | – | – | – | – | no effect | not significantly different | had no effect | abrogated the effects of TCDD | not reversed | completely abrogated the effects of TCDD | no significant effects | reversal of BaP's inhibitory effect
